The source of these data is patent US20100173935A1, “Muscarinic Receptor Agonists that are Effective in the Treatment of Pain, Alzheimer's Disease and Schizophrenia” (AstraZeneca AB, priority 2006, published 2010).

The target in one assay is T1, human M4 receptor (Homo sapiens, UniProt P08173).
T1 construct: purchased Perkin-Elmer RBHM4M; host or cells: CHO cell membranes
T1 sequence (P08173 1-479): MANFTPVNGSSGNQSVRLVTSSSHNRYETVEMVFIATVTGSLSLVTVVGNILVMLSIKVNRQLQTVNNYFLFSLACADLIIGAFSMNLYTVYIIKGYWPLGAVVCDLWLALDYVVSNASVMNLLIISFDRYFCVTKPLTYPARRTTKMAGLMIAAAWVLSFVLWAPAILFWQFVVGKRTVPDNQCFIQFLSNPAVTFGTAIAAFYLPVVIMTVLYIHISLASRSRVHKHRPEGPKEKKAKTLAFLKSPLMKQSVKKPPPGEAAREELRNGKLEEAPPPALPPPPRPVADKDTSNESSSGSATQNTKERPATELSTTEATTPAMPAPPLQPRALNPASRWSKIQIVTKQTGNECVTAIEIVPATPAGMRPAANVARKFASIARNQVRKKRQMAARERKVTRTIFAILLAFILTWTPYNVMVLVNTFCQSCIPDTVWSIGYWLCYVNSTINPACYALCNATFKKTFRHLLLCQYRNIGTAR
The assay can be described thus: hM4 receptor GTPγS binding. Type of assay: biochemical. How it is done:
Membranes produced from Chinese hamster ovary cells (CHO) expressing the cloned human M4 receptor (human Muscarinic receptor subtype 4, gene bank access NM_000741), were obtained from Perkin-Elmer (RBHM4M). The membranes were thawed at 37° C., passed 3 times through a 23-gauge blunt-end needle, diluted in the GTPγS binding buffer (50 mM Hepes, 20 mM NaOH, 100 mM NaCl, 1 mM EDTA, 5 mM MgCl2, pH 7.4, 100 μM DTT). The EC50, IC50 and Emax of the compounds of the invention were evaluated from 10-point dose-response curves (three fold concentration range) done in 60 μl in 384-well non-specific binding surface plate (Corning). Ten microliters from the dose-response curves plate (5× concentration) were transferred to another 384 well plate containing the following: 10 μg of hM4 membranes, 500 μg of Flashblue beads (Perkin-Elmer) and GDP in a 25 μl volume. An additional 15 μl containing 3.3× (55000 dpm) of GTPγS (0.4 nM final) were added to the wells resulting in a total well volume of […]. Basal and maximal stimulated [^35S]GTPγS binding were determined in absence and presence of 30 μM of acetylcholine agonist. The membranes/beads mix were pre-incubated for 15 minutes at room temperature with 40 μM GDP prior to distribution In plates (20 μM final). The reversal of acetylcholine-induced stimulation (10 μM final) of [^35S]GTPγS binding was used to assay the antagonist properties (IC50) of the compounds. The plates were incubated for 60 minutes at room temperature with shaking, then centrifuged at 2000 rpm for 5 minutes. The radioactivity (cpm) were counted in a Trilux (Perkin-Elmer).
Values of EC50, IC50 and Emax were obtained using sigmoidal fits of a non-linear curve-fitting program (XLfit version 5.0.6 from ID Business Solutions Limited, Guildford, UK) of percent stimulated [^35S]GTRγS binding vs. log(molar ligand).
All EC50 and IC50 values are reported as arithmetic means±standard error of mean of ‘n’ independent experiments. […] The IC50 was the concentration of the compound of the invention at which 50% inhibition of acetylcholine [^35S]GTRγS binding stimulation has been observed.
Background: GTPγS resists hydrolysis and so accumulates on activated G proteins.

A further assay has as its target T2, human M2 receptor (Homo sapiens, UniProt P08172).
T2 construct: purchased Perkin-Elmer RBHM2M; host or cells: CHO cell membranes
T2 sequence (P08172 1-466): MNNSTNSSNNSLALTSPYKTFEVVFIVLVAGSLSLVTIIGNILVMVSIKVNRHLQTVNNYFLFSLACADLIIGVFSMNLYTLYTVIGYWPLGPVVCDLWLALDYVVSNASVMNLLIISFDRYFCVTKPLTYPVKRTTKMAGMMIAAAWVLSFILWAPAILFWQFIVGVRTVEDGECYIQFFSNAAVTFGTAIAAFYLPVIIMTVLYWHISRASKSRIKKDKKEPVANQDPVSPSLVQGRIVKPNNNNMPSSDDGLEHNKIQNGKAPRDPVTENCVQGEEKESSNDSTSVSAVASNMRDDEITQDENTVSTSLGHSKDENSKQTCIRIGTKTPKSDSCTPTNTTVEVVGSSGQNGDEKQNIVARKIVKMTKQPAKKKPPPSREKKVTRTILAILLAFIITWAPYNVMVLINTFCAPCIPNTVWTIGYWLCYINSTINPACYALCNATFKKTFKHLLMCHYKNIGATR
The assay can be described thus: hM2 receptor GTPγS binding. It is filed as biochemical. How it is done:
Membranes produced from Chinese hamster ovary cells (CHO) expressing the cloned human M2 receptor (human Muscarinic receptor subtype 2, gene bank access NM_000739), were obtained from Perkin-Elmer (RBHM2M). The membranes were thawed at 37° C., passed 3 times through a 23-gauge blunt-end needle, diluted in the GTPγS binding buffer (50 mM Hepes, 20 mM NaOH, 100 mM NaCl, 1 mM EDTA, 5 mM MgCl2, pH 7.4, […] DTT). The EC50, IC50 and Emax of the compounds of the invention were evaluated from 10-point dose-response curves (three fold concentration range) done in 60 μl in 384-well non-specific binding surface plate (Corning). Ten microliters from the dose-response curves plate (5× concentration) were transferred to another 384 well plate containing the following: 10 μg of hM2 membranes, 500 μg of Flashblue beads (Perkin-Elmer) and GDP in a 25 μl volume. An additional 15 μl containing 3.3× (55000 dpm) of GTRγ35S (0.4 nM final) were added to the wells resulting in a total well volume of 50 μl. Basal and maximal stimulated [^35S]GTPγS binding were determined in absence and presence of 30 μM of acetylcholine agonist. The membranes/beads mix were pre-incubated for 15 minutes at room temperature with 25 μM GDP prior to distribution in plates (12.5 μM final). The reversal of acetylcholine-induced stimulation (2 μM final) of [^35S]GTPγS binding was used to assay the antagonist properties (IC50) of the compounds. The plates were incubated for 60 minutes at room temperature with shaking, then centrifuged at 2000 rpm for 5 minutes. The radioactivity (cpm) were counted in a Trilux (Perkin-Elmer).
Values of EC50, IC50 and Emax were obtained using sigmoidal fits of a non-linear curve-fitting program (XLfit version 5.0.6 from ID Business Solutions Limited, Guildford, UK) of percent stimulated [^35S]GTPγS binding vs. log(molar ligand).
All EC50 and IC50 values are reported as arithmetic means t standard error of mean of ‘n’ independent experiments. […] The IC50 was the concentration of the compound of the invention at which 50% inhibition of acetylcholine [^35S]GTPγS binding stimulation has been observed.

Where [1] appears, read: CHO membranes expressing cloned human M4, [35S]GTPγS binding, read-out: hM4 EC50.
The mark [2] stands for this setting: CHO membranes expressing cloned human M2, [35S]GTPγS binding, read-out: hM2 EC50.

As usually defined, the pEC50 is the EC50 on a negative log10 scale, so that one unit is a factor of ten.

The structures appear in SMILES notation. pEC50: −log10 of the molar value. Where two headings read alike, the source gives them in different places.

As for `CCOC(=O)N1CC[C@H](N2CCC(n3c(=O)[nH]c4ccc(F)cc43)CC2)C1` (single isomer, unassigned) [Example 35], the pEC50 at human M4 receptor and on human M2 receptor was less than 4.52 throughout.
As for `CCOC(=O)N1CC[C@@H](N2CCC(n3c(=O)[nH]c4ccc(F)cc43)CC2)C1` (single isomer, unassigned) [Example 36], the pEC50 at human M4 receptor is less than 4.52; on human M2 receptor, 5.33.
As to `CCOC(=O)N1CCC(N2CCC(C3C(=O)Nc4ccccc43)CC2)C1` (stereo not shown) [Example 13, Ethyl 3-[4-(2-oxo-2,3-dihydro-1H-indol-3-yl)piperidin-1-yl]pyrrolidine-1-carboxylate], the results for the pEC50 at human M4 receptor (setting [1]) and on human M2 receptor (setting [2]) were less than 4.52 and 5.45, respectively.
The corresponding values for `CCOC(=O)N1CC[C@@H](N2CCC(n3c(=O)[nH]c4ccccc43)CC2)C1` [Example 16, Ethyl (3R)-3-[4-(2-oxo-2,3-dihydro-1H-benzimidazol-1-yl)piperidin-1-yl]pyrrolidine-1-carboxylate] are less than 4.52 and 5.48.
Turning to `O=C(C1CCCC1)N1CC[C@H](N2CCC(n3c(=O)[nH]c4ccccc43)CC2)C1` [Example 19, 1-{1-[(3S)-1-(cyclopentylcarbonyl)pyrrolidin-3-yl]piperidin-4-yl}-1,3-dihydro-2H-benzimidazol-2-one], the pEC50 at human M4 receptor is 6.24; on human M2 receptor it was 6.61.
In the same order, the values of `O=C1CCCN1CCCC(=O)N1CC[C@H](N2CCC(n3c(=O)[nH]c4ccccc43)CC2)C1` [Example 22, 1-(1-{(3S)-1-[4-(2-oxopyrrolidin-1-yl)butanoyl]pyrrolidin-3-yl}piperidin-4-yl)-1,3-dihydro-2H-benzimidazol-2-one] are less than 4.52 and less than 4.52.
As to `Cn1c(=O)n(C2CCN([C@H]3CCN(C(=O)CCN4CCCC4=O)C3)CC2)c2ccccc21` [Example 24, 1-methyl-3-(1-{(3S)-1-[3-(2-oxopyrrolidin-1-yl)propanoyl]pyrrolidin-3-yl}piperidin-4-yl)-1,3-dihydro-2H-benzimidazol-2-one], the pEC50 at human M4 receptor (setting [1]) and on human M2 receptor (setting [2]) was less than 4.52 each time.
Regarding `CCOC(=O)N1CC[C@H](N2CCC(N3C(=O)Cc4ccccc43)CC2)C1` [Example 26, Ethyl (3S)-3-[4-(2-oxo-2,3-dihydro-1H-indol-1-yl)piperidin-1-yl]pyrrolidine-1-carboxylate], the pEC50 is less than 4.52 on human M4 receptor and 5.13 on human M2 receptor.
Regarding `O=C1CCCN1CCC(=O)N1CC[C@H](N2CCC(N3C(=O)Cc4ccccc43)CC2)C1` [Example 29, 1-(1-{(3S)-1-[3-(2-oxopyrrolidin-1-yl)propanoyl]pyrrolidin-3-yl}piperidin-4-yl)-1,3-dihydro-2H-indol-2-one], the results for the negative-log EC50 (pEC50) on human M4 receptor and on human M2 receptor were less than 4.52 and 5.76, respectively.
The corresponding values for `CCOC(=O)N1CC[C@H](N2CCC(n3c(=O)[nH]c4ccc(C#N)cc43)CC2)C1` [Example 41, Ethyl (3S)-3-[4-(6-cyano-2-oxo-2,3-dihydro-1H-benzimidazol-1-yl)piperidin-1-yl]pyrrolidine-1-carboxylate] are less than 4.52 and less than 5.48.
With `CCOC(=O)N1CC[C@H](N2CCC(n3c(=O)[nH]c4ccc(Cl)cc43)CC2)C1` [Example 42, Ethyl (3S)-3-[4-(6-chloro-2-oxo-2,3-dihydro-1H-benzimidazol-1-yl)piperidin-1-yl]pyrrolidine-1-carboxylate], the pEC50 on human M4 receptor was not above 5.00; at human M2 receptor it was 5.92.
